Assay results as given in patent publication EP2060252A1, “New formulation of galactosylceramide derivatives” (Wittycell, priority 2007, dated 2009).

Assays:
[1] = Mixed micelles with bile salts: macroscopic aspect after reconstitution; type: physicochemical; details: for Aspect of the solution after reconstitution: PBS57 200 µg/mL; for Macroscopic observation right after reconstitution with 5% glucose: PBS57 50 µg/mL, ratio bile salt / PBS57 1/1
Description: The mixed-micelle solution manufacturing process requires co-solubilization of the lipid and the bile salt into a solvent (ethanol) that is then evaporated before the final aqueous medium is added to obtain the mixed-micellar solution. A 5% glucose solution was used as the aqueous reconstitution medium here.
Both sodium taurocholate and deoxycholate were tested. A first indication that the mixed aggregates are truly formed is the clear aspect of the solution.
PBS57 concentration in the above 2 experiments was 50 µg/mL. The ratio bile salt / PBS57 was here 1/1.
Solutions of PBS57 at 200 µg/mL associated (equimolar ratio) to sodium taurocholate or sodium deoxycholate were manufactured by the same protocol.

[2] = Micelle to vesicle phase transition upon dilution: aspect; type: physicochemical; details: mixed micellar solution from sodium taurocholate and PBS57 (50 µg/mL)
Description: It is well established that phospholipids/bile salt mixed aggregates are going through a phase transition to form vesicles (liposomes) once diluted.
The same experiment was carried out on a mixed micellar solution obtained from sodium taurocholate and PBS57 (50 µg/mL).

[3] = water

CCCCCCCC/C=C\CCCCCCCCCCCCCC(=O)N[C@@H](CO[C@H]1O[C@H](CNC(C)=O)[C@H](O)[C@H](O)[C@H]1O)[C@H](O)[C@H](O)CCCCCCCCCCCCCC [PBS57]
Aspect of the solution after reconstitution ([1]; equimolar ratio to sodium deoxycholate): perfectly clear
Aspect of the solution after reconstitution ([1]; equimolar ratio to sodium taurocholate): perfectly clear
Macroscopic observation right after reconstitution with 5% glucose ([1]; excipient Deoxycholate): Turbid with large aggregates, flocculation slowly turning to sedimentation
Macroscopic observation right after reconstitution with 5% glucose ([1]; excipient Taurocholate): Slightly turbid
Aspect upon dilution [2]: slightly turbid suspension

α-galactosylceramide [α-GC]
Thermodynamic aqueous solubility [3]: below 5 µg/mL
